Laboratory results published in patent US20220288404A1, “METHODS FOR APPLYING TUMOR TREATING FIELDS IN COMBINATION WITH CANCER TREATING THERAPEUTICS” (THE BOARD OF REGENTS OF THE UNIVERSITY OF TEXAS SYSTEM, priority 2021, published 2022).

Assays:
Assay type in all cases: cell-based
[1] = system: H157 cells; test: Clonogenic cell survival assay, H157 cells; settings: for CI 5FU + 2Gy / CI TTFields + 5FU / CI TTFields + 5FU + 2Gy / CI AZD + 2Gy / CI TTFields + 2Gy + AZD / CI TTFields + AZD: CI>1 synergistic; for surviving fraction: agent as shown in figure
Procedure: (§1) Using certain embodiments disclosed herein, TTFields in combination with various inhibitors and/or radiation treatment (IR) were applied to NSCLC cells or pancreatic cancer cells. For example, a predetermined inhibitor at a predetermined concentration was delivered to NSCLC cells or pancreatic cancer cells, and the cells were immediately exposed to TTFields (e.g., 100-250 kHz and 1-20 V/cm v/cm) for about 24, […], or 72 hours. The predetermined concentration was a cell line specific concentration for optimal target cell killing. Then, the cells were irradiated (at a dose of 2Gy) for less than a minute (e.g., 3.25 Gy/min) and immediately plated for survival.
(§2) FIGS. 4 and 5 depict example effects of TTFields, AZD6738, radiation, and a combination thereof on non-small cell lung cancer cells (NSCLC) and pancreatic cancer cell, respectively. In particular, FIGS. 4 and 5 show TTFields exposure synergistically increases the effects of ATR inhibitor AZD6738 on NSLCL cells (FIG. 4) survival and pancreatic cancer cell (FIG. 5) survival. TTFields were used together with ATR inhibitor AZD6738 and radiation (IR). A synergistic effect was observed when AZD6738 and IR were combined with TTFields using the highest single agent (HSA) approach. The following formulas were used for calculating CI: SF=Survival Fraction; CI (TTFields)+(2Gy)=(SF2Gy×SFTTFields)/SF2Gy+TTFields; CI(TTFields)+(AZD)=(SFAZD×SFTTFields)/SFAZD+TTFields; CI (2Gy)+(AZD)=(SF2Gy×SFAZD)/SF2Gy+AZD; and CI (TTFields)+(2Gy)+(AZD)=(SF2Gy×SFAZD×SFTTFields)/SFTTFields+2Gy+AZD.
(§3) The following formulas are used for calculating the combination Index: SF=Survival Fraction; CI (TTFields)+(2Gy)=(SF2Gy×SFTTFields)/SF2Gy+TTFields; CI(TTFields)+(Irino)=(SFIrino×SFTTFields)/SFIrino+TTFields; CI (2Gy)+(Irino)=(S2Gy×SFIrino)SF2Gy+Irino; and CI (TTFields)+(2Gy)+(Irino)=(SF2Gy×SFIrino×SFTTFields)/SFTTFields+2Gy+Irino.

[2] = system: H1299 cells; test: Clonogenic cell survival assay, H1299 cells; settings: for CI 5FU + 2Gy / CI TTFields + 5FU / CI TTFields + 5FU + 2Gy / CI AZD + 2Gy / CI TTFields + 2Gy + AZD / CI TTFields + AZD: CI>1 synergistic; for surviving fraction: agent as shown in figure
Procedure: as §1, §2, §3

[3] = system: H1299 cells; test: Clonogenic cell survival assay, H1299 cells; settings: 48 h, CI>1 synergistic
[4] = system: Panc-1 cells; test: Clonogenic cell survival assay, Panc-1 cells; settings: for surviving fraction: agent as shown in figure; for CI AZD + 2Gy / CI TTFields + 2Gy + AZD / CI TTFields + AZD: CI>1 synergistic
Procedure: (§4) Using certain embodiments disclosed herein, TTFields in combination with various inhibitors and/or radiation treatment (IR) were applied to NSCLC cells or pancreatic cancer cells. For example, a predetermined inhibitor at a predetermined concentration was delivered to NSCLC cells or pancreatic cancer cells, and the cells were immediately exposed to TTFields (e.g., 100-250 kHz and 1-20 V/cm v/cm) for about 24, […], or 72 hours. The predetermined concentration was a cell line specific concentration for optimal target cell killing.
(§5) Olaparib was given concomitant with TTFields. Radiation was given 24, 48 or 72 h after the initiation of TTFields and specific agents. […] Values greater than 1.0 are considered as synergistic, that is, greater than the sum of the individual responses. The following formulas were used for calculating CI: SF=Survival Fraction; CI (TTFields)+(2Gy)=(SF2Gy×SFTTFields)/SF2Gy+TTFields; CI(TTFields)+(Olap)=(SFOlap×SFTTFields)/SFOlap+TTFields; CI (2Gy)+(Olap)=(SF2Gy×SFOlap)/SF2Gy+Olap; and CI (TTFields)+(2Gy)+(Olap)=(SF2Gy×SFOlap×SFTTFields)/SFTTFields+2Gy+Olap. […] Based upon the Highest Single Agent […] approach. The calculation for the Combination Index can be found below.
as §2, §3

[5] = system: H157 cells; test: Clonogenic cell survival assay, H157 cells; settings: 48 h, CI>1 synergistic
[6] = system: 04.03 cells; test: Clonogenic cell survival assay, 04.03 cells; settings: for surviving fraction: agent as shown in figure; for CI AZD + 2Gy / CI TTFields + 2Gy + AZD / CI TTFields + AZD: CI>1 synergistic
Procedure: as §4, §5, §2

## O=c1[nH]cc(F)c(=O)[nH]1 [5FU, 5-Fluorouracil]
[1]
  effect of combinations of TTFields, agent and/or IR on cell survival: synergistic effects
  surviving fraction: significantly reduced
[1]; 24 h
  CI 5FU + 2Gy: 0.894
  CI TTFields + 5FU: 1.559
  CI TTFields + 5FU + 2Gy: 1.433
[1]; 48 h
  CI 5FU + 2Gy: 0.962
  CI TTFields + 5FU + 2Gy: 1.783
[1]; 72 h
  CI 5FU + 2Gy: 1.125
  CI TTFields + 5FU: 1.106
  CI TTFields + 5FU + 2Gy: 1.658
[2]
  effect of combinations of TTFields, agent and/or IR on cell survival: synergistic effects
  surviving fraction: significantly reduced
[2]; 24 h
  CI 5FU + 2Gy: 1.254
  CI TTFields + 5FU: 1.352
  CI TTFields + 5FU + 2Gy: 1.762
[2]; 48 h
  CI 5FU + 2Gy: 0.950
  CI TTFields + 5FU: 1.348
[2]; 72 h
  CI TTFields + 5FU: 1.326
  CI TTFields + 5FU + 2Gy: 1.345
[3]
  CI TTFields + 5FU + 2Gy: 1.263
[4]
  effect of combinations of TTFields, agent and/or IR on cell survival: synergistic effects
  surviving fraction: significantly reduced
[5]
  CI TTFields + 5FU: 1.252
[6]
  effect of combinations of TTFields, agent and/or IR on cell survival: synergistic effects
  surviving fraction: significantly reduced

## C[C@@H]1COCCN1c1cc(C2([S@](C)(=N)=O)CC2)nc(-c2cc[nH]c3nccc2-3)n1 [AZD, Ceralasertib (AZD6738)]
[1]
  effect of combinations of TTFields, agent and/or IR on cell survival: synergistic effects
  surviving fraction: significantly reduced
[1]; 24 h
  CI AZD + 2Gy: 1.498
  CI TTFields + 2Gy + AZD: 2.430
  CI TTFields + AZD: 1.048
[1]; 48 h
  CI AZD + 2Gy: 1.292
  CI TTFields + 2Gy + AZD: 2.062
[1]; 72 h
  CI AZD + 2Gy: 3.115
  CI TTFields + 2Gy + AZD: 4.874
  CI TTFields + AZD: 1.036
[2]
  effect of combinations of TTFields, agent and/or IR on cell survival: synergistic effects
  surviving fraction: significantly reduced
[2]; 24 h
  CI AZD + 2Gy: 1.127
  CI TTFields + 2Gy + AZD: 3.553
  CI TTFields + AZD: 1.070
[2]; 48 h
  CI TTFields + 2Gy + AZD: 2.535
[2]; 72 h
  CI AZD + 2Gy: 1.143
  CI TTFields + 2Gy + AZD: 2.206
  CI TTFields + AZD: 1.092
[3]
  CI AZD + 2Gy: 1.215
  CI TTFields + AZD: 1.242
[4]
  effect of combinations of TTFields, agent and/or IR on cell survival: synergistic effects
  surviving fraction: significantly reduced
[4]; 24 h
  CI AZD + 2Gy: 0.894
  CI TTFields + 2Gy + AZD: 1.068
  CI TTFields + AZD: 1.088
[4]; 48 h
  CI AZD + 2Gy: 0.879
  CI TTFields + 2Gy + AZD: 1.153
  CI TTFields + AZD: 0.970
[4]; 72 h
  CI AZD + 2Gy: 1.030
  CI TTFields + 2Gy + AZD: 1.514
  CI TTFields + AZD: 1.072
[5]
  CI TTFields + AZD: 1.072
[6]
  effect of combinations of TTFields, agent and/or IR on cell survival: synergistic effects
  surviving fraction: significantly reduced
[6]; 24 h
  CI AZD + 2Gy: 1.018
  CI TTFields + 2Gy + AZD: 1.272
  CI TTFields + AZD: 1.049
[6]; 48 h
  CI AZD + 2Gy: 1.158
  CI TTFields + 2Gy + AZD: 2.394
  CI TTFields + AZD: 1.550
[6]; 72 h
  CI AZD + 2Gy: 1.011
  CI TTFields + 2Gy + AZD: 2.674
  CI TTFields + AZD: 1.287
